We go through 5 compounds from US20240150396A1 (The Texas A&M University System, priority 2021, published 2024).

As a reminder, the EC50 is the concentration giving half of the maximal effect. One may read the CC50 as the concentration giving 50% cytotoxicity. For orientation: inhibition means the change of the read-out against control, counted positive when it falls.

“And” between values parts separate entries of the source, which are not always exact repeats. Identical values can stand only once. Like-named read-outs stand apart in the source and are kept apart here. Residues, ends and D or L forms follow the SMILES beside them. *: point of attachment. Cbz = O=C(OCc1ccccc1)* A value given as a limit tells only on which side of the number the result lay.

Data set [1] deals with T. b. brucei procyclic forms. Kind of data set: Growth of axenic cultures of T. b. brucei procyclic forms (PCFs). The data set is classed as cell-based, Trypanosoma brucei brucei. The conditions noted are these: for EC50: axenic culture, read-out: EC50 T. b. brucei PCF.
For data set [2], the system named is SARS-CoV-2 in Vero E6 cells. Kind of data set: Anti-CoV-2 activity in Vero E6 cells. The data set is classed as cell-based.
Data set [3] concerns the target cruzain (Trypanosoma cruzi, UniProt P25779). Kind of data set: biochemical. The conditions noted are these: for Ki: pH 7.5. The procedure: All enzyme assays were performed at 25° C. Initial rates of the peptidolytic reaction catalyzed by cruzain were measured by monitoring the fluorescence generated by cleavage of the dipeptide-AMC bond. Assays were conducted in 96-well plates (Greiner; flat-bottom, clear black plates) in a total volume of 250 μL, containing either 50 mM MES (pH 7.5), 50 mM TAPSO, 100 mM DEA, 1 mM CHAPS, 1 mM Na2EDTA, 5 mM DTT, and 10% DMSO (v/v) or 50 mM sodium acetate (pH 5.5), 50 mM MES, 100 mM TEA, 1 mM CHAPS, 1 mM Na2EDTA, 5 mM DTT, and 10% DMSO (v/v). Substrates were dissolved in 100% DMSO and were then diluted 10-fold such that when added to reaction mixtures, final DMSO concentration was 10% (v/v). […] Fluorescence was measured on either a SpectraMax M5 (Molecular Devices) or a Synergy HTX (BioTek, Winooski, VT) microplate reader (λex=360 nm, λem=460 nm). Initial rates were determined from continuous kinetic time courses and calculated from the earliest time points, typically at less than 10 min.
(2) Enzyme and compound were preincubated over extended periods of time, and then aliquots were removed and diluted 50-fold to 100-fold into reaction mixtures containing 10 μM Cbz-Phe-Arg-AMC, followed by the assessment of the resulting time courses.
Data for time-dependent inhibition were fitted by several methods.
Values of kobs versus [inhibitor] were then replotted and fitted to eq 4 for which k3 and k4 represent the respective rates of formation and dissolution of the EI* complex as depicted in FIG. 9.
In addition, time-course data were fitted globally by two methods. First, expressions for vs, vi, and kobs were substituted into eq 3 to generate eq 6, which was used to fit time-course data at all concentrations of inhibitors simultaneously. Second, time-course data were fitted using KinTek Explorer as either a single-binding step model with the two kinetic parameters k3/Ki and k4 or a two-step binding mechanism as shown in FIG. 9 from which rate constants k1-k4 are determined (Supporting Information).
Enzyme Assays. The preparation of cruzain and 3CL^pro were described in previous publications.^8, 34 The evaluation of inhibitors was modified from our lab protocol and described briefly as follows.^35 All enzyme assays were conducted in 96-well, clear bottom, black plates at 25° C., and fluorescence emanating from product formation was measured using either a SpectraMax M5 (Molecular Devices) or a Synergy HTX (Biotek) microplate reader, with excitation at λex=360 nm and emission at λem=460 nm. […] Reactions were started with addition of enzyme (typically, to a final concentration of 0.2 nM for cruzain or 40 nM for 3CL^pro), and the time courses were recorded for 0.5-1 h.
Kinetic Data Analysis. All time-course data were fitted to eq. 1, wherein P is the fluorescence generated by formation of AMC or liberated ACC, C is the background constant, vi and vs are respectively initial-state and steady-state reaction rates, t is time, and kobs is the observed rate of conversion of the initial inhibited rate to the final inhibited rate.^46
Overall inhibition constants (Ki* values) were obtained by fitting vs/v0 to eq. 4, wherein vs and v0 are steady-state reaction rates in the presence and absence of inhibitor respectively, [S] and [I] represent the fixed concentration of substrate and variable inhibitor, Km is the Michaelis constant of the substrate.

In data set [4] the test system is T. b. brucei bloodstream forms. Kind of data set: Growth of axenic cultures of T. b. brucei bloodstream forms (BSFs).
Experimental: Selected cruzain inhibitors were evaluated in axenic cell cultures of T. b. brucei and T. cruzi. Procyclic trypomastigotes of T. b. brucei (ATCC PRA-381) were grown in the SDM-79 medium at 26° C., and bloodstream forms (ATCC PRA-383) were grown at 37° C. in the HMI-9 medium at 5% C02. […] Both forms of T. b. brucei and T. cruzi were grown in media containing 10% fetal bovine serum (FBS) and penicillin/streptomycin (50 U mL^−1). […] Control samples contained equal amounts of DMSO. T. b. brucei and T. cruzi (5 mL in flask cultures) were seeded at ˜3×10^6 cells and diluted daily, maintaining a mid-log growth phase for up to 120 h. […] After each cell dilution, fresh compound or an equal volume of DMSO (control samples) was supplemented into the cultures, while maintaining a constant concentration of each inhibitor. Cell counts were scored using a Z2 Coulter Counter.
In vitro Cell Assays. Bloodstream form T. b. brucei strain SM427 was grown in HM1-9 medium that included fetal bovine serum (10%) and antibiotics (100 U/mL penicillin-streptomycin, Gibco™). Inhibitors dissolved in 100% (v/v) DMSO stock solutions were added at final concentrations of 0.5-20 μM (final concentrations of DMSO were <1% (v/v)). T. b. brucei were seeded at ˜1×10^6 cells at 37° C., and diluted daily to maintain a log phase of growth for up to 96 h. […] After each dilution, the cell cultures were supplemented with inhibitor or DMSO (control) to keep concentrations constant. Cell density was determined and graphed as previously reported.^36 Trypanosomes were quantified using a Z2 Coulter Counter, and values of EC50 were determined after 3-4 days of treatment by the interpolation method of Huber and Koella.^37
Data set [5] has as its target SARS-CoV-2 3CL protease (Severe acute respiratory syndrome coronavirus 2 (2019-nCoV) (SARS-CoV-2), UniProt P0DTD1). Kind of data set: biochemical. The conditions noted are these: pH 7.5. The data set is classed as biochemical.
Data set [6] has as its target human cathepsin L (Homo sapiens (Human), UniProt P07711). Kind of data set: Human cathepsin L inhibition, Z-FR-AMC assay. Format: biochemical. The conditions noted are these: pH 5.5, 25° C.; read-out: Ki* hCatL. The procedure:
Recombinant human cathepsins B and L were purchased from Millipore Sigma and used without further treatment. The solid proteins were dissolved into a solution of 50 mM sodium acetate (pH 5.5), 1 mM EDTA, 1 mM CHAPS, 10% (v/v) DMSO, and 5 mM DTT to final concentrations of […] in 20-mL aliquots, and stored at −80° C. until needed. These samples were then diluted into the same buffer to concentrations of −100 nM, and these dilutions were stored at 4° C. and used daily until depletion.
For assays of cathepsin L and B, inhibitors were evaluated in 0.25-mL reaction mixtures containing a buffer of sodium acetate (pH 5.5), 1 mM CHAPS, 1 mM Na2EDTA, and 5 mM DTT at 25° C. The fluorogenic substrate Cbz-Phe-Arg-7-amino-4-methyl-coumarin (Z-FR-AMC) was dissolved in 100% DMSO, as were all inhibitors, and aliquots of both substrates and inhibitors were added to reaction mixtures to final concentrations of DMSO of 10% (v/v). […] Formation of the fluorescent product AMC was monitored over 30-60-minute time courses for reaction mixtures in 96-well black microplates (Corning Costar®). Rates of peptidolysis of the dipeptide-AMC substrate(s) were measured on either a SpectraMax M5 (Molecular Devices) or a Synergy HTX (Biotek, Wisnooki, VT) microplate reader with λex=360 nm, λem=460 nm in ≥8-sec intervals. Control samples excluded substrate. The measured relative fluorescence units (RFUs) of generated AMC were converted to reaction rates of μM/s by use of a standard curve of known AMC concentrations obtained for both plate readers.

The test system of data set [7] is T. cruzi (Ca-I/72) in C2C12 murine cardiomyoblasts. Kind of data set: T. cruzi-infected murine cardiomyoblasts (C2C12). The conditions noted are these: read-out: EC50 T. cruzi-infected cardiomyoblasts. Format: cell-based, Trypanosoma cruzi. The protocol: For the evaluation of the antitrypanocidal activity of cruzain inhibitors, we infected a C2C12 mouse cardiomyoblast cell line (ATCC CRL-1772) with T. cruzi strain Ca-I/72 (a gift from James Dvorak, National Institutes of Health) in […] plates. […] The plates were incubated at 37° C. for 48 h, and the wells were fixed with 2% paraformaldehyde in PBS and stained with 5 μg mL-1 4,6-diamidino-2-phenylindole. After at least 30 min of incubation at room temperature in the dark, the plates were read in an automated microscope, ImageXpress Micro XL (Molecular Devices), and the images were analyzed by custom-built software to quantify and assess viability of the parasites, as well as the host cells independently. The compilation of data was used to calculate the antiparasitic activity (EC50) and host cytotoxicity (CC50).
T. cruzi infection was evaluated in C2C12 murine cardiomyoblast cells. 384-microwell plates containing C2C12 murine cardiomyoblast cells were infected with 10^3 and 10^4 cells of T. cruzi (Ca-I/72), to which was added 3-fold serially-dilutions of inhibitor with maximal concentrations of 10 μM, followed by incubation at 37° C. for 2 days. The wells were fixed with 2% PFA in PBS, and stained by 5 μg/ml of DAPI. After >30 min of incubation in a dark environment, the plates were read on an ImageXpress MicroXL microscope (Molecular Devices). The images were analyzed to quantify parasites as well host cells.

The nature of data set [8]: Host cell cytotoxicity in the T. cruzi infection model. The data set is classed as cell-based, mouse. The conditions noted are these: mouse; host cardiomyoblasts; read-out: C2C12 Cytotoxicity CC50. The procedure:
The plates were incubated at 37° C. for 48 h, and the wells were fixed with 2% paraformaldehyde in PBS and stained with 5 μg mL-1 4,6-diamidino-2-phenylindole. After at least 30 min of incubation at room temperature in the dark, the plates were read in an automated microscope, ImageXpress Micro XL (Molecular Devices), and the images were analyzed by custom-built software to quantify and assess viability of the parasites, as well as the host cells independently. The compilation of data was used to calculate the antiparasitic activity (EC50) and host cytotoxicity (CC50).
T. cruzi infection was evaluated in C2C12 murine cardiomyoblast cells. […] The wells were fixed with 2% PFA in PBS, and stained by 5 μg/ml of DAPI. After >30 min of incubation in a dark environment, the plates were read on an ImageXpress MicroXL microscope (Molecular Devices). The images were analyzed to quantify parasites as well host cells.

Data set [9] has as its system T. cruzi epimastigotes (strain Y). In words: Growth of axenic cultures of T. cruzi epimastigotes. The conditions noted are these: for EC50: Trypanosoma cruzi, read-out: T. cruzi axenic culture EC50, epimastigotes; for T. cruzi axenic culture EC50: epimastigotes.
Experimental: Selected cruzain inhibitors in axenic cell cultures of Trypanosoma brucei brucei (procyclic trypomastigotes; ATCC PRA-381) and Trypanosoma cruzi (epimastigote forms; strain Y, ATCC 50832GFP) were tested. T. b. brucei is grown in SDM-79 medium, and T. cruzi is grown in ATCC medium (1029 LIT medium). Both media included fetal calf serum (10%) and penicillin/streptomycin (50 U/mL). […] T. brucei and T. cruzi (5 mL in flask cultures) at 26° C. were seeded at ˜3×10^6 cells, and diluted daily maintaining a mid-log growth phase for up to 100 hrs. Cell counts were scored using a Z2 Coulter Counter. After each cell dilution, fresh compound or an equal volume of DMSO (control samples), was supplemented into the cultures. […] Cruzain inhibitors where the highest concentration reflects the upper limit of solubilities of the inhibitors in 1% (v/v) DMSO solutions were evaluated. These inhibitors are likely to bind to proteins in fetal calf serum, and for these reasons, fresh inhibitors were added each time cells were re-fed.
Selected cruzain inhibitors were evaluated in axenic cell cultures of T. b. brucei and T. cruzi. Procyclic trypomastigotes of T. b. brucei (ATCC PRA-381) were grown in the SDM-79 medium at 26° C., and bloodstream forms (ATCC PRA-383) were grown at 37° C. in the HMI-9 medium at 5% C02. T. cruzi (epimastigote forms, strain Y, ATCC 50832GFP) was grown in the ATCC medium (1029 LIT medium). Both forms of T. b. brucei and T. cruzi were grown in media containing 10% fetal bovine serum (FBS) and penicillin/streptomycin (50 U mL^−1). […] Control samples contained equal amounts of DMSO. T. b. brucei and T. cruzi (5 mL in flask cultures) were seeded at ˜3×10^6 cells and diluted daily, maintaining a mid-log growth phase for up to 120 h. […] After each cell dilution, fresh compound or an equal volume of DMSO (control samples) was supplemented into the cultures, while maintaining a constant concentration of each inhibitor. Cell counts were scored using a Z2 Coulter Counter.
Data set [10] can be described thus: Thiolation of inhibitors with glutathione, LCMS. Format: physicochemical. The conditions noted are these: 5 mM glutathione, 0.5 mM compound, Tris pH 8.0, 10% DMSO. The protocol: Samples were analyzed by HPLC-MS (as described above) by injecting 0.01 mL aliquots onto a Luna […] C18(2) 100 Å, 4.6 mm, 50 mm column (Phenomenex) using the HPLC method described in the chemistry section at 0-6 h time points. […] Integration of the chromatographic peaks of the inhibitors and their GSH adducts at each time point was used to determine the rate of GSH adduct formation.

Data set [11] deals with human dermal fibroblasts. Kind of data set: Human cell toxicity, resazurin viability. Format: cell-based. The conditions noted are these: human dermal fibroblasts; read-out: Human Cell Cytotoxicity CC50. The protocol: Primary human dermal fibroblast (HDF) cells were used to evaluate human cell toxicity of cruzain inhibitors. HDF cells were plated in a 384-well plate at 2400 cells per well (62,000 cells mL^−1). Inhibitors in 100% DMSO were added in duplicate to final concentrations of 0.001-0.1 mM and 1% DMSO (v/v) with 1% DMSO as a control sample, and cells were cultured at 37° C. for 48 h, followed by the addition of resazurin. Cell viability was then assessed by reading of fluorescence (excitation/emission: 544 nm/590 nm) after an additional 24 h of incubation.
Background: Resazurin is reduced to fluorescent resorufin, in cell work by metabolically active cells.

The mark [12] stands for this setting: apparent tight-binding inhibition constant, 25° C., read-out: Ki*.
The mark [13] stands for this setting: Trypanosoma cruzi, C2C12, C2C12 murine cardiomyoblasts.
The mark [14] stands for this setting: apparent initial inhibition constant, 25° C., read-out: Ki.

Sequence of cruzain (P25779 123-467 limits assumed): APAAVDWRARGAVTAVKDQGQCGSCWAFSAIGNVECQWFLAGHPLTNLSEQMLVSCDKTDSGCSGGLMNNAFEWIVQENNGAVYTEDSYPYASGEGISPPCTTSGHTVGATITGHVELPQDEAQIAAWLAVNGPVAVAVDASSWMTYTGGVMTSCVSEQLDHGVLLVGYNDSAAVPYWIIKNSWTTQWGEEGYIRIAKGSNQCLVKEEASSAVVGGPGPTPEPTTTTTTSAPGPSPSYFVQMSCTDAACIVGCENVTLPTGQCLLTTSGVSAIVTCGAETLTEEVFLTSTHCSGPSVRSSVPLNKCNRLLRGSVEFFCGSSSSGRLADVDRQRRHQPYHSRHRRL
Sequence of human cathepsin L (P07711 114-333): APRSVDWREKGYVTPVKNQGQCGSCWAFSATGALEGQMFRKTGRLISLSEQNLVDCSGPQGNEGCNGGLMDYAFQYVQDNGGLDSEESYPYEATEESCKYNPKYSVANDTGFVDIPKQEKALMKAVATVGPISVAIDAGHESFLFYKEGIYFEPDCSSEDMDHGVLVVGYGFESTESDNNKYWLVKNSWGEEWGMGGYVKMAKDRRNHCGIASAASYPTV

As for `O=C[C@H](Cc1ccccc1)NC(=O)[C@H](Cc1ccccc1)NC(=O)OCc1ccccc1` [Compound 28] (Cbz-Phe-Phe-aldehyde), the EC50 in data set [1] is 8 µM; in [2], 500 nM; in data set [4] (read-out: EC50 T. b. brucei BSF, axenic culture), 3 µM and 3.3 µM; in [7] (C2C12 murine cardiomyoblasts), 500 nM and 250 nM. Further, in data set [3] (conversion of EI* back to EI, from kobs replot or recovery after preincubation and dilution), the k4 entry was “(7.6±0.6)×10^−4 s^−1”. The Ki in data set [3] (obtained >10 minutes following initiation of reaction by addition of enzyme, read-out: Ki* Cruzain) is 0.44 nM; in data set [5] (read-out: Ki* 3CLpro), above 10 µM; in data set [6], 0.31 nM. In [3] (preincubation, dilution, recovery of cruzain activity), the “residence time τ” value was 52 min. In addition, the “Ki* 3CLpro” value in data set [5] is “not an inhibitor of 3CL protease”.
Regarding `CN1CCN(C(=O)N[C@@H](Cc2ccccc2)C(=O)N[C@H](/C=C/c2ncccn2)CCc2ccccc2)CC1` [Compound 9, 4-Methyl-N—((S)-1-oxo-3-phenyl-1-(((S,E)-5-phenyl-1-(pyrimidin-2-yl)pent-1-en-3-yl)amino)propan-2-yl)piperazine-1-carboxamide], the CC50 at 48 h in [8] is above 10 µM. Moreover, the Ki in [3] (setting [12]) stood at 2200 ± 100 nM. Moreover, the EC50 in [4] (Trypanosoma brucei, read-out: EC50 T. b. brucei BSF, axenic culture) was above 20 µM; in data set [9] it was 20 µM; in [7] (setting [13]), 5000 to 8000 nM. Moreover, in data set [9], the “T. cruzi axenic culture EC50” value is recorded as “poorly effective”.
`O=C(N[C@@H](Cc1ccccc1)C(=O)N[C@H](/C=C/c1cc(C(F)(F)F)ccn1)CCc1ccccc1)OCc1ccccc1` [Compound 17, Benzyl ((S)-1-Oxo-3-phenyl-1-(((S,E)-5-phenyl-1-(4-(trifluoromethyl)pyridin-2-yl)pent-1-en-3-yl)amino)propan-2-yl)-carbamate]: the inhibition at 20 µM in data set [1] (Trypanosoma brucei, at 20 μM, read-out: inhibition of cell growth) was at most 50%. The Ki in data set [3] (setting [12]) was found to be 570 ± 50 nM. Also, in [10], the “Rate of Thiolation, k” value was “Negligible”. Besides, the “T. cruzi axenic culture EC50” value in [9] was “poorly effective”.
In the case of `O=C(N[C@@H](Cc1ccccc1)C(=O)N[C@H](/C=C/c1ncco1)Cc1ccccc1)OCc1ccccc1` [Compound 24, Benzyl ((S)-1-(((S,E)-4-(Oxazol-2-yl)-1-phenylbut-3-en-2-yl)-amino)-1-oxo-3-phenylpropan-2-yl)carbamate], the results for the EC50 in data set [1] (Trypanosoma brucei) and in data set [9] were 27 ± 5 µM and above 20 µM, respectively. Also, the values for the Ki in [3] (setting [14]) and in [3] (setting [12]) were 10000 ± 1000 nM and 710 ± 10 nM, respectively. The CC50 in data set [11] was above 100 µM. Moreover, the “T. cruzi axenic culture EC50” value in data set [9] is listed as “poorly effective”.
As for `C[C@@H](/C=C/c1ncccn1)NC(=O)[C@H](Cc1ccccc1)NC(=O)OCc1ccccc1` [Compound 10, Benzyl ((S)-1-Oxo-3-phenyl-1-(((S,E)-4-(pyrimidin-2-yl)but-3-en-2-yl)amino)propan-2-yl)carbamate], the CC50 at 48 h in data set [8] was above 10 µM. For the same compound, the Ki was 58000 nM in [3] (setting [14]); 280 nM in [3] (apparent tight-binding inhibition constant, 25° C.); 25000 ± 1000 nM in [3] (setting [12]). For the same compound, in [7] (setting [13]), the EC50 lay in the range of 5000 to 8000 nM.
